These are literature values, as cited in US9695323B2, “UV curable solventless antimicrobial compositions” (Becton, Dickinson and Company, priority 2013, dated 2017).

For this data set, the system named is Staphylococcus epidermidis.

Take `CC(=O)O.CC(=O)O.NC(=N\CCCCCC/N=C(N)/N=C(\N)Nc1ccc(Cl)cc1)/N=C(\N)Nc1ccc(Cl)cc1` [chlorhexidine diacetate]: the minimum inhibitory concentration is 2 µg/mL.
